Data taken from the NIST ThermoML archive (doi:10.1016/j.jct.2015.01.004).
Values joined by “and” are separate entries in the source; they are usually repeats but may differ in a detail not shown here. Identical values can stand only once.

Experiment: molar heat capacity at constant pressure; xn = mol fraction of the nth substance listed
Settings: 100 kPa

[Si] [silicon] + [Li]
Settings | molar heat capacity at constant pressure
660 K, Crystal of intercomponent compound 1, relaxation calorimetry + DSC, x2 = 0.81 | 29.4 J/K/mol
660 K, Crystal of intercomponent compound 2, relaxation calorimetry + DSC, x2 = 0.804 | 30.54 J/K/mol
661.54 K, Crystal of intercomponent compound 2, Small sample (50 mg) DSC, x2 = 0.804 | 30.1 J/K/mol and 30.48 J/K/mol
661.72 K, Crystal of intercomponent compound 1, Small sample (50 mg) DSC, x2 = 0.81 | 29.4 J/K/mol
661.75 K, Crystal of intercomponent compound 1, Small sample (50 mg) DSC, x2 = 0.81 | 29.72 J/K/mol
671.45 K, Crystal of intercomponent compound 2, Small sample (50 mg) DSC, x2 = 0.804 | 30.27 J/K/mol and 30.68 J/K/mol
671.64 K, Crystal of intercomponent compound 1, Small sample (50 mg) DSC, x2 = 0.81 | 29.62 J/K/mol
671.66 K, Crystal of intercomponent compound 1, Small sample (50 mg) DSC, x2 = 0.81 | 29.83 J/K/mol
680 K, Crystal of intercomponent compound 1, relaxation calorimetry + DSC, x2 = 0.81 | 29.94 J/K/mol
680 K, Crystal of intercomponent compound 2, relaxation calorimetry + DSC, x2 = 0.804 | 30.97 J/K/mol
681.36 K, Crystal of intercomponent compound 2, Small sample (50 mg) DSC, x2 = 0.804 | 30.52 J/K/mol and 30.84 J/K/mol
681.56 K, Crystal of intercomponent compound 1, Small sample (50 mg) DSC, x2 = 0.81 | 29.62 J/K/mol
681.57 K, Crystal of intercomponent compound 1, Small sample (50 mg) DSC, x2 = 0.81 | 30.16 J/K/mol
691.29 K, Crystal of intercomponent compound 2, Small sample (50 mg) DSC, x2 = 0.804 | 30.56 J/K/mol and 31.08 J/K/mol
691.47 K, Crystal of intercomponent compound 1, Small sample (50 mg) DSC, x2 = 0.81 | 29.94 J/K/mol
691.48 K, Crystal of intercomponent compound 1, Small sample (50 mg) DSC, x2 = 0.81 | 30.38 J/K/mol
700 K, Crystal of intercomponent compound 1, relaxation calorimetry + DSC, x2 = 0.81 | 30.53 J/K/mol
700 K, Crystal of intercomponent compound 2, relaxation calorimetry + DSC, x2 = 0.804 | 31.4 J/K/mol
701.21 K, Crystal of intercomponent compound 2, Small sample (50 mg) DSC, x2 = 0.804 | 31.04 J/K/mol and 31.36 J/K/mol
701.37 K, Crystal of intercomponent compound 1, Small sample (50 mg) DSC, x2 = 0.81 | 30.27 J/K/mol
701.39 K, Crystal of intercomponent compound 1, Small sample (50 mg) DSC, x2 = 0.81 | 30.6 J/K/mol
711.13 K, Crystal of intercomponent compound 2, Small sample (50 mg) DSC, x2 = 0.804 | 31.38 J/K/mol and 31.59 J/K/mol
711.28 K, Crystal of intercomponent compound 1, Small sample (50 mg) DSC, x2 = 0.81 | 30.6 J/K/mol
711.3 K, Crystal of intercomponent compound 1, Small sample (50 mg) DSC, x2 = 0.81 | 30.82 J/K/mol
720 K, Crystal of intercomponent compound 1, relaxation calorimetry + DSC, x2 = 0.81 | 31.18 J/K/mol
720 K, Crystal of intercomponent compound 2, relaxation calorimetry + DSC, x2 = 0.804 | 31.84 J/K/mol
721.05 K, Crystal of intercomponent compound 2, Small sample (50 mg) DSC, x2 = 0.804 | 31.75 J/K/mol and 32.03 J/K/mol
721.2 K, Crystal of intercomponent compound 1, Small sample (50 mg) DSC, x2 = 0.81 | 30.49 J/K/mol
721.22 K, Crystal of intercomponent compound 1, Small sample (50 mg) DSC, x2 = 0.81 | 31.15 J/K/mol
730.97 K, Crystal of intercomponent compound 2, Small sample (50 mg) DSC, x2 = 0.804 | 32.1 J/K/mol and 32.36 J/K/mol
731.12 K, Crystal of intercomponent compound 1, Small sample (50 mg) DSC, x2 = 0.81 | 31.04 J/K/mol
731.13 K, Crystal of intercomponent compound 1, Small sample (50 mg) DSC, x2 = 0.81 | 31.37 J/K/mol
740 K, Crystal of intercomponent compound 1, relaxation calorimetry + DSC, x2 = 0.81 | 31.88 J/K/mol
740 K, Crystal of intercomponent compound 2, relaxation calorimetry + DSC, x2 = 0.804 | 32.3 J/K/mol
740.89 K, Crystal of intercomponent compound 2, Small sample (50 mg) DSC, x2 = 0.804 | 32.38 J/K/mol and 32.64 J/K/mol
741.03 K, Crystal of intercomponent compound 1, Small sample (50 mg) DSC, x2 = 0.81 | 31.26 J/K/mol
741.04 K, Crystal of intercomponent compound 1, Small sample (50 mg) DSC, x2 = 0.81 | 31.7 J/K/mol
750.81 K, Crystal of intercomponent compound 2, Small sample (50 mg) DSC, x2 = 0.804 | 32.68 J/K/mol and 32.92 J/K/mol
750.95 K, Crystal of intercomponent compound 1, Small sample (50 mg) DSC, x2 = 0.81 | 31.81 J/K/mol
750.96 K, Crystal of intercomponent compound 1, Small sample (50 mg) DSC, x2 = 0.81 | 32.14 J/K/mol
760 K, Crystal of intercomponent compound 1, relaxation calorimetry + DSC, x2 = 0.81 | 32.63 J/K/mol
760 K, Crystal of intercomponent compound 2, relaxation calorimetry + DSC, x2 = 0.804 | 32.82 J/K/mol
760.73 K, Crystal of intercomponent compound 2, Small sample (50 mg) DSC, x2 = 0.804 | 33.14 J/K/mol and 33.47 J/K/mol
760.87 K, Crystal of intercomponent compound 1, Small sample (50 mg) DSC, x2 = 0.81 | 32.14 J/K/mol and 32.58 J/K/mol
770.64 K, Crystal of intercomponent compound 2, Small sample (50 mg) DSC, x2 = 0.804 | 33.77 J/K/mol and 34.02 J/K/mol
770.79 K, Crystal of intercomponent compound 1, Small sample (50 mg) DSC, x2 = 0.81 | 33.23 J/K/mol and 33.34 J/K/mol
771.71 K, Crystal of intercomponent compound 1, Small sample (50 mg) DSC, x2 = 0.81 | 33.67 J/K/mol
773.69 K, Crystal of intercomponent compound 1, Small sample (50 mg) DSC, x2 = 0.81 | 33.78 J/K/mol
775.67 K, Crystal of intercomponent compound 1, Small sample (50 mg) DSC, x2 = 0.81 | 33.89 J/K/mol
777.66 K, Crystal of intercomponent compound 1, Small sample (50 mg) DSC, x2 = 0.81 | 34.22 J/K/mol
779.64 K, Crystal of intercomponent compound 1, Small sample (50 mg) DSC, x2 = 0.81 | 34.39 J/K/mol
780 K, Crystal of intercomponent compound 1, relaxation calorimetry + DSC, x2 = 0.81 | 33.45 J/K/mol
780 K, Crystal of intercomponent compound 2, relaxation calorimetry + DSC, x2 = 0.804 | 33.49 J/K/mol
780.56 K, Crystal of intercomponent compound 2, Small sample (50 mg) DSC, x2 = 0.804 | 34.41 J/K/mol and 34.69 J/K/mol
780.7 K, Crystal of intercomponent compound 1, Small sample (50 mg) DSC, x2 = 0.81 | 34 J/K/mol
780.71 K, Crystal of intercomponent compound 1, Small sample (50 mg) DSC, x2 = 0.81 | 34.22 J/K/mol
781.63 K, Crystal of intercomponent compound 1, Small sample (50 mg) DSC, x2 = 0.81 | 34.88 J/K/mol
783.61 K, Crystal of intercomponent compound 1, Small sample (50 mg) DSC, x2 = 0.81 | 34.99 J/K/mol
785.59 K, Crystal of intercomponent compound 1, Small sample (50 mg) DSC, x2 = 0.81 | 35.21 J/K/mol
787.58 K, Crystal of intercomponent compound 1, Small sample (50 mg) DSC, x2 = 0.81 | 35.32 J/K/mol
789.57 K, Crystal of intercomponent compound 1, Small sample (50 mg) DSC, x2 = 0.81 | 35.32 J/K/mol
790.48 K, Crystal of intercomponent compound 2, Small sample (50 mg) DSC, x2 = 0.804 | 34.65 J/K/mol and 35.21 J/K/mol
790.61 K, Crystal of intercomponent compound 1, Small sample (50 mg) DSC, x2 = 0.81 | 34.99 J/K/mol
790.63 K, Crystal of intercomponent compound 1, Small sample (50 mg) DSC, x2 = 0.81 | 34.55 J/K/mol
791.55 K, Crystal of intercomponent compound 1, Small sample (50 mg) DSC, x2 = 0.81 | 35.54 J/K/mol
793.53 K, Crystal of intercomponent compound 1, Small sample (50 mg) DSC, x2 = 0.81 | 35.76 J/K/mol
795.51 K, Crystal of intercomponent compound 1, Small sample (50 mg) DSC, x2 = 0.81 | 36.31 J/K/mol
797.49 K, Crystal of intercomponent compound 1, Small sample (50 mg) DSC, x2 = 0.81 | 36.96 J/K/mol
800 K, Crystal of intercomponent compound 1, relaxation calorimetry + DSC, x2 = 0.81 | 34.34 J/K/mol
800 K, Crystal of intercomponent compound 2, relaxation calorimetry + DSC, x2 = 0.804 | 34.61 J/K/mol
800.39 K, Crystal of intercomponent compound 2, Small sample (50 mg) DSC, x2 = 0.804 | 35.13 J/K/mol and 35.58 J/K/mol
810.3 K, Crystal of intercomponent compound 2, Small sample (50 mg) DSC, x2 = 0.804 | 35.47 J/K/mol and 36.02 J/K/mol
820 K, Crystal of intercomponent compound 2, relaxation calorimetry + DSC, x2 = 0.804 | 36.83 J/K/mol
820.22 K, Crystal of intercomponent compound 2, Small sample (50 mg) DSC, x2 = 0.804 | 36.24 J/K/mol and 36.35 J/K/mol
830.13 K, Crystal of intercomponent compound 2, Small sample (50 mg) DSC, x2 = 0.804 | 38.35 J/K/mol and 38.57 J/K/mol
840 K, Crystal of intercomponent compound 2, relaxation calorimetry + DSC, x2 = 0.804 | 41.72 J/K/mol
840.04 K, Crystal of intercomponent compound 2, Small sample (50 mg) DSC, x2 = 0.804 | 41.23 J/K/mol and 41.78 J/K/mol
849.95 K, Crystal of intercomponent compound 2, Small sample (50 mg) DSC, x2 = 0.804 | 45.22 J/K/mol and 47.32 J/K/mol
859.87 K, Crystal of intercomponent compound 2, Small sample (50 mg) DSC, x2 = 0.804 | 51.54 J/K/mol and 53.53 J/K/mol
860 K, Crystal of intercomponent compound 2, relaxation calorimetry + DSC, x2 = 0.804 | 52.81 J/K/mol
869.79 K, Crystal of intercomponent compound 2, Small sample (50 mg) DSC, x2 = 0.804 | 60.18 J/K/mol and 65.17 J/K/mol
